# Assay results from US20110262556A1, “SILVER/WATER, SILVER GELS AND SILVER-BASED COMPOSITIONS; AND METHODS FOR MAKING AND USING THE SAME” (AMERICAN SILVER, LLC, priority 2005, published 2011).
# Several values for one entry are separate records, joined by “and”; a condition that tells them apart may be missing. Equal entries are not always repeated. Where two headings read alike, the source gives them in different places.
# Columns and labels:
# [1] = target: Moloney murine leukemia virus reverse transcriptase (MoMuLV) (Moloney murine leukemia virus, UniProt P03355); assay: Reverse transcriptase inhibition; assay type: biochemical; settings: 37° C., 24 hours; AZT control at 0.625 microgram/ml
# Experimental: A commercial viral enzyme preparation of Moloney murine leukemia virus reverse transcriptase (MoMuLV) having Poly(A)dT (primer for RT) was used. […] of the MoMuLV preparation was combined with a mixture of dATP, dGTP, dCTP and [^3H]dTTP nucleotides.
# This mixture was combined with 3 ml of the inhibitor to be tested, and the resultant mixture was incubated at 37° C. for 24 hours.
# A negative control experiment was performed in which phosphate buffer saline (PBS, 3 ml) was used instead of the inhibitor.
# A positive control experiment was performed in which a known reverse transcriptase inhibitor (3 ml of AZT at a concentration 0.625 microgram/ml) was used instead of the tested inhibitor.
# The reaction was stopped by adding 25 ml EDTA and 25 ml TCA. The reaction mixture was then spotted on ionic paper (DEAE paper). The paper was washed three times with TCA and then with ethyl alcohol. The filter paper was air dried and put in a scintillation vial with a scintillation cocktail. Radioactivity was measured by a liquid scintillation counter (Blue Star).
# [2] = tested on: Escherichia coli MDR clinical isolate (stool); assay: Antibiotic sensitivity, Kirby Bauer; settings: E.c; Kirby-Bauer antibiotic disc
# [3] = tested on: Pseudomonas aeruginosa MDR clinical isolate (sputum); assay: Antibiotic sensitivity, Kirby Bauer
# [4] = tested on: MRSA clinical isolate (pus); assay: Antibiotic sensitivity, Kirby Bauer; settings: Kirby-Bauer antibiotic disc
# S.typhi = assay: Zone of inhibition, agar well; settings: antibiotic amount (5-200 mcg)
# E. coil = assay: Zone of inhibition, agar well; settings: E.coli; antibiotic amount (5-200 mcg)
# MRSA clinical isolate = assay: MIC, macrodilution broth
# S. boydii = assay: MIC/MBC broth microdilution; assay type: cell-based, Shigella boydii; settings: Shigella boydii
# S gordonii = assay: MIC/MBC broth microdilution; assay type: cell-based, Streptococcus gordonii; settings: Streptococcus gordonii
# S arizona = assay: MIC/MBC broth microdilution; assay type: cell-based, Salmonella arizona; settings: Salmonella
# P. aeruginosa = assay: MIC/MBC broth microdilution; assay type: cell-based, Pseudomonas aeruginosa; settings: Pseudomonas aeruginosa
# MRSA 2 = assay: Zone of inhibition, agar well; settings: antibiotic amount (1-200 mcg)
# S. pneumoniae = assay: MIC/MBC broth microdilution; assay type: cell-based; settings: Streptococcus pneumoniae
# S. typhimurium = assay: MIC/MBC broth microdilution; assay type: cell-based; settings: Salmonella enterica, TYPHIMURIUM
# K. oxytoca = assay: MIC/MBC broth microdilution; assay type: cell-based; settings: Klebsiella oxytoca
# S. pyogenes = assay: MIC/MBC broth microdilution; assay type: cell-based, Streptococcus pyogenes; settings: Streptococcus pyogenes
# S. mutans = assay: MIC/MBC broth microdilution; assay type: cell-based, Streptococcus mutans; settings: Streptococcus mutans
# S. aureus = assay: MIC/MBC broth microdilution; assay type: cell-based, Staphylococcus aureus; settings: Staphylococcus aureus
# Ps. Aeruginosa = assay: Zone of inhibition, agar well; settings: antibiotic amount (5-200 mcg)
# E. coli = assay: MIC/MBC broth microdilution; assay type: cell-based, Escherichia coli; settings: Escherichia coli
# S. aureus ATCC 6538 P = assay: Zone of inhibition, agar well; settings: antibiotic amount (1-200 mcg)
# E. cloacae = assay: MIC/MBC broth microdilution; assay type: cell-based; settings: Enterobacter cloacae
# E. aerogenes = assay: MIC/MBC broth microdilution; assay type: cell-based, Enterobacter aerogenes; settings: Klebsiella aerogenes; E. aerogenes; read-out: MIC
# K. pneumoniae [5] = assay: MIC/MBC broth microdilution; assay type: cell-based, Klebsiella pneumoniae; settings: Klebsiella pneumoniae
# S. faecalis = assay: MIC/MBC broth microdilution; assay type: cell-based, Streptococcus faecalis; settings: Enterococcus faecalis
# [6] = target: T1, Hepatitis B virus DNA polymerase (Hepatitis B virus genotype D subtype ayw, UniProt P03156); assay: DNA polymerase inhibition; assay type: biochemical; settings: read-out: % Inhibition (DNA polymerase)
# T1 construct: from tissue; host or cells: Hepatitis B virus isolated from human subjects, lysed
# Experimental: Overall approach. Hepatitis B viral extracts from human subjects are incubated with radiolabelled nucleotides and an active inhibitor. Percent inhibition is calculated based on the amount of de novo viral nucleic acid synthesized with respect to lamivudine as a positive control and phosphate buffer saline (PBS) as a negative control.
# Specific procedure. Isolated Hepatitis B virus was lysed to extract free polymerase enzyme, which is free from contaminating enzymes. A virus extract (25 ml) was added to a reaction mixture comprising dATP, dGTP, dCTP and [^3H]dTTP nucleotides (25 ml). Active inhibitor (3 ml) was added to the mixture comprising virus extract and nucleotides. The resultant mixture was incubated at 37° C. for 24 hours.
# A separate negative control experiment was performed in which phosphate buffer saline (PBS, 3 ml) was used instead of the inhibitor (3 ml).
# A separate positive control experiment was performed in which a known DNA polymerase inhibitor (3 ml of lamivudine at a concentration 3 mg/ml) was used instead of the tested inhibitor (3 ml).
# The reaction was stopped by adding 25 ml EDTA and 25 ml TCA (trichloroacetic acid). The reaction mixture was then spotted on ionic paper (DEAE paper). The paper was washed three times with TCA and then with ethyl alcohol. […] Radioactivity was measured by a liquid scintillation counter (Blue Star). […]
# [7] = tested on: Mycobacterium bovis BCG (TMC 1028); assay type: cell-based
# Salmonella culture = settings: 5, 10 or 15 min
# Experimental: (§1) Phenol Resistance. Five-one ml aliquots of each dilution of the test phenol were placed into sterile test tubes and allowed to equilibrate in a 20±2° C. water bath. At 30 second intervals, 0.5 ml of each challenge culture was added to the appropriate dilutions of phenol, agitated, and replaced into the water bath: After the appropriate exposure times of 5, 10, and 15 minutes, a loopful of suspension was removed from the assay tubes and transferred to tubes of letheen broth (LETH). The tubes of LETH were incubated at 37±2° C. for 2 days.
# Pseudomonas culture = tested on: Pseudomonas culture
# Experimental: as §1
# Staphylococcus culture = tested on: Staphylococcus culture
# Experimental: as §1
# B. subtilis = assay: Zone of inhibition, agar well; settings: antibiotic amount (1-200 mcg)
# K. pneumoniae [8] = assay: Zone of inhibition, agar well; settings: antibiotic amount (5-200 mcg)
# T1 sequence (P03156 whole entry): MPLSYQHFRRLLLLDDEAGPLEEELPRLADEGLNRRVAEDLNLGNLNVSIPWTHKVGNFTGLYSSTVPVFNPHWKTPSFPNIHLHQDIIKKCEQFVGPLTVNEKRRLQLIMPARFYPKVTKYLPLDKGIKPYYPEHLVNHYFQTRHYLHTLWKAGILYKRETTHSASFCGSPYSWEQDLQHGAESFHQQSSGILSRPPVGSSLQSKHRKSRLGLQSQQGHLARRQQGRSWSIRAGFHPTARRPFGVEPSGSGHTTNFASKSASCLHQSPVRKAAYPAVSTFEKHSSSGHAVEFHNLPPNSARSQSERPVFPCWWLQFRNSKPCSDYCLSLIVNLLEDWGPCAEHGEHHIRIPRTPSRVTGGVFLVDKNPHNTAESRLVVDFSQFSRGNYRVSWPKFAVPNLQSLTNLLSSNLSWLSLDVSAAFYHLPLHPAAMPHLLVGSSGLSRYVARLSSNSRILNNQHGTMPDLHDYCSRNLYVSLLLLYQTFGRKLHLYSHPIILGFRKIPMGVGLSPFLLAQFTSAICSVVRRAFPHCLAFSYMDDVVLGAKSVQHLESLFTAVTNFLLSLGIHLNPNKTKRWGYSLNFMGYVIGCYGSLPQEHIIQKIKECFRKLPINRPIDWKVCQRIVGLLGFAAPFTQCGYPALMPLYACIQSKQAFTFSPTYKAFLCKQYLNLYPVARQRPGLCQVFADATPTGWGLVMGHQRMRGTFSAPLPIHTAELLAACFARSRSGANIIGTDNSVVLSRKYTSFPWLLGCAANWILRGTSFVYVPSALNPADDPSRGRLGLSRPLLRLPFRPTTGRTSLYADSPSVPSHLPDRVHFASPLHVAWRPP
molecule,measurement,setting,value
"Cc1cn([C@H]2C[C@H](N=[N+]=[N-])[C@@H](CO)O2)c(=O)[nH]c1=O [AZT, zidovudine]",% Inhibition (reverse transcriptase),[1],31.33% and 18.06%
NCC[C@H](O)C(=O)N[C@@H]1C[C@H](N)[C@@H](O[C@H]2O[C@H](CN)[C@@H](O)[C@H](O)[C@H]2O)[C@H](O)[C@H]1O[C@H]1O[C@H](CO)[C@@H](O)[C@H](N)[C@H]1O [Amikacin],Zone size (mm),[2],20 mm
same,Zone size (mm),"[3]; Ps., Kirby-Bauer antibiotic disc",9 mm
same,resistance of isolate,[3]; gram-negative isolate Pseudomonas,resistant
same,Zone size (mm),[4],22 mm
same,"zone of inhibition, antibiotics",S.typhi,Clear
same,"zone of inhibition, antibiotics",E. coil,Clear
same,Growth,MRSA clinical isolate; Conc. 0.2 mcg/ml,+
same,Growth,MRSA clinical isolate; Conc. 0.4 mcg/ml,+
same,Growth,MRSA clinical isolate; Conc. 0.6 mcg/ml,+
same,Growth,MRSA clinical isolate; Conc. 0.8 mcg/ml,−
same,Growth,MRSA clinical isolate; Conc. 1 mcg/ml,−
same,Growth,MRSA clinical isolate; Conc. 2 mcg/ml,−
same,Growth,MRSA clinical isolate; Conc. 3 mcg/ml,−
same,Growth,MRSA clinical isolate; Conc. 4 mcg/ml,−
same,Growth,MRSA clinical isolate; Conc. 5 mcg/ml,−
same,MIC,"MRSA clinical isolate; Staphylococcus aureus, Nutrient Broth",0.8 µg/mL
CN(C)[C@@H]1C(O)=C(C(N)=O)C(=O)[C@@]2(O)C(O)=C3C(=O)c4c(O)cccc4[C@@](C)(O)[C@H]3C[C@@H]12 [Tetracycline],MBC,S. boydii,> 5 µg/mL
same,MBC,S gordonii; read-out: MBC,0.625 µg/mL
same,MIC,S gordonii; read-out: MIC,0.156 µg/mL
same,MBC,S arizona; read-out: MBC,> 5 µg/mL
same,MIC,S arizona; read-out: MIC,0.625 µg/mL
same,MBC,P. aeruginosa; read-out: MBC,5 µg/mL
same,MIC,P. aeruginosa; read-out: MIC,0.078 µg/mL
same,"zone of inhibition, antibiotics",MRSA 2,0.7 mm
same,MBC,S. pneumoniae; read-out: MBC,0.625 µg/mL
same,MIC,S. pneumoniae; read-out: MIC,0.078 µg/mL
same,MBC,S. typhimurium,> 5 µg/mL
same,MBC,K. oxytoca,> 5 µg/mL
same,MBC,S. pyogenes; read-out: MBC,> 5 µg/mL
same,MIC,S. pyogenes; read-out: MIC,0.625 µg/mL
same,Zone size (mm),[4],27 mm
same,MBC,S. mutans; read-out: MBC,> 5 µg/mL
same,MIC,S. mutans; read-out: MIC,0.625 µg/mL
same,"zone of inhibition, antibiotics",S.typhi,16 mm
same,"zone of inhibition, antibiotics",E. coil,19 mm
same,MBC,S. aureus; read-out: MBC,> 5 µg/mL
same,MIC,S. aureus; read-out: MIC,0.313 µg/mL
same,"zone of inhibition, antibiotics",Ps. Aeruginosa,No inhibition
same,MBC,E. coli; read-out: MBC,> 5 µg/mL
same,MIC,E. coli; read-out: MIC,1.67 µg/mL
same,"zone of inhibition, antibiotics",S. aureus ATCC 6538 P,34 mm
same,MBC,E. cloacae,> 5 µg/mL
same,MIC,E. cloacae; read-out: MIC,1.67 µg/mL
same,MIC,E. aerogenes,> 5 µg/mL
same,MBC,K. pneumoniae [5],> 5 µg/mL
same,MIC,K. pneumoniae [5]; read-out: MIC,2.5 µg/mL
same,MBC,S. faecalis; read-out: MBC,> 5 µg/mL
same,MIC,S. faecalis; read-out: MIC,0.313 µg/mL
Nc1ccn([C@@H]2CS[C@H](CO)O2)c(=O)n1 [lamivudine],inhibition at 3000 µg/mL,[6],31.3%
Oc1ccccc1 [phenol],log reduction,[7],~1.81
same,growth after phenol treatment,Salmonella culture; 1:90 phenol,no growth
same,growth after phenol treatment,Salmonella culture; 1:100 phenol,showed growth
same,growth after phenol treatment,"Pseudomonas culture; 1:80 phenol, 5 or 10 min",showed growth
same,growth after phenol treatment,"Pseudomonas culture; 1:80 phenol, 15 min",no growth
same,growth after phenol treatment,"Pseudomonas culture; 1:90 phenol, 5, 10 or 15 min",showed growth
same,growth after phenol treatment,"Staphylococcus culture; 1:60 phenol, 5 or 10 min",showed growth
same,growth after phenol treatment,"Staphylococcus culture; 1:60 phenol, 15 min",no growth
same,growth after phenol treatment,"Staphylococcus culture; 1:70 phenol, 5, 10 or 15 min",showed growth
Co-Trimoxazole,"zone of inhibition, antibiotics",B. subtilis,15 mm
same,"zone of inhibition, antibiotics",S.typhi,27 mm
same,"zone of inhibition, antibiotics",E. coil,24 mm
same,"zone of inhibition, antibiotics",Ps. Aeruginosa,Clear
same,"zone of inhibition, antibiotics",S. aureus ATCC 6538 P,Clear
same,"zone of inhibition, antibiotics",K. pneumoniae [8],19 mm
Gentamycin,"zone of inhibition, antibiotics",B. subtilis,18 mm
same,"zone of inhibition, antibiotics",MRSA 2,11 mm
same,Zone size (mm),[2],19 mm
same,"zone of inhibition, antibiotics",S.typhi,Clear
same,"zone of inhibition, antibiotics",E. coil,Clear
same,"zone of inhibition, antibiotics",Ps. Aeruginosa,No inhibition
same,"zone of inhibition, antibiotics",S. aureus ATCC 6538 P,1Clear
same,"zone of inhibition, antibiotics",K. pneumoniae [8],17 mm
